Experimental findings from ChEMBL document CHEMBL1208788 (Bioorg Med Chem Lett, 2010) are described below.

Chain of Cannabinoid receptor 1 (P21554 whole entry): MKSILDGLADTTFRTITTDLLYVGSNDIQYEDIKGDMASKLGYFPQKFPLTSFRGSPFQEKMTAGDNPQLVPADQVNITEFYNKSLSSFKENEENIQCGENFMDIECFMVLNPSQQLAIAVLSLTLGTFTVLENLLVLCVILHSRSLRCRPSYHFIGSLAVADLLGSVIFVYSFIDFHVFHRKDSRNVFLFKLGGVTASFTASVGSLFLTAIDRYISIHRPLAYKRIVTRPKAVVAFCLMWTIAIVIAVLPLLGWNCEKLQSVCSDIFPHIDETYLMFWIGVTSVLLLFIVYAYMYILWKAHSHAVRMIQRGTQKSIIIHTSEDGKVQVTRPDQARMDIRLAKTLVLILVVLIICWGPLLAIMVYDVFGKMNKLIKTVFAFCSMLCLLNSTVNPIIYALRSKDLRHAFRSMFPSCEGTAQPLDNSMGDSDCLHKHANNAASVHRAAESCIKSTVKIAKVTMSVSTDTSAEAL

This assay has as its target Cannabinoid receptor 1 (Homo sapiens, UniProt P21554). Kind of assay: Displacement of [3H][…] from human recombinant cannabinoid CB1 receptor expressed in CHO cells. The class given is cell-based. Background: Loss of bound radioactivity is the signal in a displacement assay; it reports binding, not function.
Usually IC50 stands for the concentration that inhibits the measured activity by half. For `CC(C)(Oc1ccc(C(F)(F)F)cn1)C(=O)N1CCC(Cc2ccc(Cl)cc2)(c2ccccc2)C1` (racemic), the IC50 was determined as 810 nM.

As for `CC(C)(Oc1ccc(C(F)(F)F)cn1)C(=O)NCC(C)(Cc1ccc(Cl)cc1)c1cccc(Br)c1` (racemic), the IC50 was found to be 340 nM.

With `CC(C)(Oc1ccc(C(F)(F)F)cn1)C(=O)N1CCCC(Cc2ccc(Cl)cc2)(c2ccccc2)C1` (racemic), the IC50 came out at 2000 nM.

In the case of `CC(C)(Oc1ccc(C(F)(F)F)cn1)C(=O)N1CC(Cc2ccc(Cl)cc2)(c2ccccc2)C1`, the IC50 was determined as 1300 nM.

Consider `CC(C)(Oc1ccc(C(F)(F)F)cn1)C(=O)NC(C)(C)[C@@H](Cc1ccc(Cl)cc1)c1cccc(Br)c1` (racemic), for which the IC50 came out at 22 nM.

As for `C[C@H](NC(=O)C(C)(C)Oc1ccc(C(F)(F)F)cn1)[C@@H](Cc1ccc(Cl)cc1)c1cccc(Br)c1` (racemic), the IC50 turned out to be 0.59 nM.

For `CC(NC(=O)C(C)(C)Oc1ccc(C(F)(F)F)cn1)C(C)(Cc1ccc(Cl)cc1)c1cccc(Br)c1` (racemic), the IC50 amounted to 25 nM.

Consider `CC(NC(=O)C(C)(C)Oc1ccc(C(F)(F)F)cn1)C(C)(Cc1ccc(Cl)cc1)c1cccc(Br)c1` (stereo in doubt; 5b), for which the IC50 turned out to be 260 nM.
